Assay results as given in patent US20090221441A1, “THREE-DIMENSIONAL CELLULAR ARRAY CHIP AND PLATFORM FOR TOXICOLOGY ASSAYS” (Rensselaer Polytechnic Institute, priority 2005, published 2009).

Columns and labels:
[1] = Cytotoxicity of compounds and their P450-generated metabolites, Hep3B DataChip stamped with MetaChip; conditions: human
Procedure: (§1) The cytotoxicity of drugs (or drug metabolites) was determined by staining the slide containing the cells with a Live/Dead test kit (Molecular Probes) that produces a green fluorescent response from living cells. At the end of the 3-day culture period post stamping, the three-dimensional cell chip (DataChip) was rinsed three times in PBS for 5 min each. One mL of a dye solution containing 0.5 μM calcein AM was applied to each three-dimensional cell chip using a glass slide with 1 mm thick perimeter gasket acting as a barrier to prevent loss of the dye solution.
(§2) Following incubation for 50 minutes at room temperature, excess dye in the collagen-gel drops was removed by incubating the slides in a petri dish containing 16 mL of PBS for 30 min on a gyratory shaker at 60 rpm. The three-dimensional cell chip was dried thoroughly with nitrogen. The three-dimensional cell chip was scanned with the GenePix® Professional 4200A scanner equipped with blue laser and standard blue filter to determine the green fluorescent intensity and was quantified from the scanning image using GenePix Pro 6.0 (Molecular Devices Co.).
(§3) Percent live cells=(FReaction/FMax)×100
(§4) where FReaction is the green fluorescence intensity of the reaction spot and FMax is the green fluorescence intensity of untreated fully viable cells.
(§5) For efficient stamping, MTMOS-coated glass slides were prepared to contain a sol-gel barrier on the periphery of the slides.
(§6) To this end […] of methyltrimethoxysilane (MTMOS) sol was prepared by mixing 2 mL of MTMOS with 1 mL of HCl (10 mM) and sonicated for 10 min. The sol was spotted on the periphery of the MTMOS-coated slide and then the slide was baked in an oven for 30 min at 120° C.
(§7) The MetaChip was stored at −80° C. for 1 day prior to use. Cytotoxicity studies were performed by spotting 20 nL of test compound in distilled water (0-2 mM) onto the MetaChip spots and partially dried.
(§8) This was followed by stamping of the three-dimensional cell chip (DataChip) containing either MCF7 or Hep3B cells onto the MetaChip.
(§9) To this end, a MetaChip consisting of 20×54 alginate spots was prepared; each spot containing a single human P450 isoform (CYP1A2, CYP2D6, or CYP3A4), a mixture of the three isoforms, or no P450 as a test compound only control. Addition of test compounds was carried out by overlay spotting of solutions of these compounds onto the MetaChip, which was then stamped on top of the DataChip.
(§10) Using three DataChips in combination with three MetaChips, IC50 values for 27 compounds and their P450-generated metabolites against human Hep3B cells were determined. […] The three P450 isoforms were used along with an equimolar mixture of the three isoforms and a test compound only control without P450. The test compounds were added to the MetaChip, which was then stamped onto the DataChip and incubated for 6 h. This was followed by removing the DataChip, rinsing with growth medium, incubating in media for 3 days, and then stained for cell viability.

human Hep3B cells = assay: in vitro
Procedure: as §1, §2, §3, §4, §5, §6, §7, §8, §9, §10

[2] = IC50, CYP1A2, Hep3B DataChip, MetaChip spots with CYP1A2
[3] = IC50, CYP2D6, Hep3B DataChip, MetaChip spots with CYP2D6
[4] = IC50, CYP3A4, Hep3B DataChip, MetaChip spots with CYP3A4
[5] = IC50, Mixture, Hep3B DataChip, equimolar mixture of CYP1A2, CYP2D6, CYP3A4
[6] = IC50, No P450, Hep3B DataChip, test compound only control without P450
[7] = Hep3B cells, compared with no P450

| SMILES | IC50 at 6 h [1, 2] | IC50 at 6 h [1, 3] | IC50 at 6 h [1, 4] | IC50 at 6 h [1, 5] | IC50 at 6 h [1, 6] | Activation or deactivation of the toxic response by CYP1A2 (human Hep3B cells) | Activation or deactivation of the toxic response by CYP3A4 (human Hep3B cells) | IC30 (human Hep3B cells) | Activation or deactivation of the toxic response by CYP3A4 (human Hep3B cells; [7]) | Activation or deactivation of the toxic response by CYP2D6 (human Hep3B cells) | IC50 at 6 h ([1]; IC50 values, Hep3B DataChip) | Activation or deactivation of the toxic response by the mixture of the three P450 isoforms (human Hep3B cells) |
| --- | --- | --- | --- | --- | --- | --- | --- | --- | --- | --- | --- | --- |
| CC(=O)Nc1ccc(O)cc1 [Acetaminophen, acetaminophen] | 2590 ± 960 µM | > 1000 µM | 2770 ± 1240 µM | > 1000 µM | > 1000 µM | strongly activated | strongly activated | (IC30: 0.50 ± 0.02) |  |  |  |  |
| CC(=O)Oc1ccccc1C(=O)O [Acetylsalicylic Acid] | > 1000 µM | > 1000 µM | > 1000 µM | > 1000 µM | > 1000 µM |  |  |  |  |  |  |  |
| CN(C)CCC=C1c2ccccc2CCc2ccccc21 [Amitriptyline] | 75 ± 14.2 µM | 55.9 ± 10.1 µM | 63.4 ± 12.1 µM | 75.6 ± 9.89 µM | 31.7 ± 1.98 µM | moderately to weakly deactivated |  |  |  |  |  |  |
| CCN(CC)CCCC(C)Nc1ccnc2cc(Cl)ccc12 (stereo not shown) [Chloroquine] | 184 ± 19.9 µM | 112 ± 22.3 µM | 79.7 ± 12.8 µM | 94.5 ± 14.1 µM | 189 ± 25.2 µM |  |  |  | deactivated |  |  |  |
| O=P1(N(CCCl)CCCl)NCCCO1 (stereo not shown) [Cyclophosphamide, cyclophosphamide] | > 1000 µM | > 1000 µM | 2110 ± 600 µM | > 1000 µM | > 1000 µM |  |  |  | strongly activated |  |  |  |
| Nc1ccn([C@@H]2O[C@H](CO)[C@@H](O)[C@@H]2O)c(=O)n1 [Cytarabine] |  |  |  |  |  | moderately to weakly deactivated |  |  |  | deactivating |  |  |
| C[C@H]1O[C@@H](O[C@H]2[C@@H](O)C[C@H](O[C@H]3[C@@H](O)C[C@H](O[C@H]4CC[C@@]5(C)[C@H](CC[C@@H]6[C@@H]5C[C@@H](O)[C@]5(C)[C@@H](C7=CC(=O)OC7)CC[C@]65O)C4)O[C@@H]3C)O[C@@H]2C)C[C@H](O)[C@@H]1O [Digoxin] | 1.29 ± 0.09 µM | 0.43 ± 0.03 µM | 1.37 ± 0.05 µM | 0.59 ± 0.03 µM | 0.8 ± 0.09 µM |  |  |  |  |  | < 1 µM |  |
| NNC(=O)c1ccncc1 [Isoniazid] | 353 ± 89.9 µM | > 1000 µM | > 1000 µM | > 1000 µM | > 1000 µM |  |  |  |  |  |  |  |
| Cl[C@H]1[C@H](Cl)[C@@H](Cl)[C@@H](Cl)[C@H](Cl)[C@H]1Cl [Lindane] | 2730 ± 1080 µM | 5150 ± 1960 µM | 523 ± 133 µM | > 1000 µM | 394 ± 132 µM | moderately to weakly deactivated |  |  |  | deactivating lindane (strongly) |  | greater deactivation in the mixture than with any of the three individual isoforms |
